Here are results for three molecules from patent US20090275527A1, “SKIN AGING TREATMENT COMPRISING PAEONIFLORIN” (LG HOUSEHOLD & HEALTH CARE LTD., priority 2004, published 2009).

One test relates to Keratinocytes. Nature of the test: Prevention against skin cell death and aging (X-Gal staining, flow cytometer), keratinocytes. The format is cell-based, mouse. Here is the method:
(§1) Skin tissue was taken from a red skin mouse 3 days or less old. Hypodermic tissue was removed and the skin was treated with 0.25% trypsin for 12 hours. The skin was separated into the epidermis and the dermis. The epidermis was cultured to 75% confluence in an epidermis culture medium (K-SFM). The dermis was further treated with trypsin at 37° C. for 2 hours. Fibroblasts were taken from the dermis and cultured to 75% confluence in a DMEM culture medium containing 10% serum. Cell growth and division status was confirmed by specifically staining cell DNA. β-Gal is a material for specifically marking aged skin cells. Young cells and cells in the resting phase are left intact and only aged cells are specifically stained. Cultured keratinocytes and fibroblasts were treated with a minimum amount of X-Gal, respectively, and stained at 37 for 24 hours. Aged skin cells were stained to deep blue in 2-4 hours and gave the best result in 12-16 hours (see Proc. Natl. Acad. Sci. USA, 1995, 92: 9363-7). Then, stained cells (aged cells), living cells and dead cells were counted with a flow cytometer. In Table 4, “blank” refers to the control group containing no cells.

The subject of test [1] is fibroblasts. Nature of the test: Prevention against skin cell death and aging (X-Gal staining, flow cytometer), fibroblasts. The format is cell-based, mouse. As for the experimental part: as §1
A further test relates to guinea pig back skin. Kind of test: Guinea pig back skin application for 30 days: appearance, histology, collagen (HYP) content. The format is in vivo. As to conditions: 3 (w/v)% sample; for Increase of collagenous fiber bundles (%) / Increase of collagen content in dermis (%): about 5 mg/cm^2 twice a day; for Increase of collagen content in dermis (%): HYP content. Here is the method: (§2) 10 g of stearic acid (C18H36O2), 70 mL of water and 20 mL of glycerol, each heated to 80, were mixed homogeneously. After stirring for about 1 minute, 3 (w/v)% of paeoniflorin or vitamin E (positive control group) was added. After adding 0.1 (w/v)% of methyl paraben, stirring was performed for 1 minute. 1 mL of KOH was slowly added. After considerable emulsification had proceeded, stirring was performed until the temperature reached about 50.
(§3) Guinea pigs were grouped, each group consisting of 3 males and 3 females. An area of 3×3 cm^2 was shaved from the back of each guinea pig. For each guinea pig, the left side was treated with the sample prepared above and the right side was treated as a negative control group and a positive control group. Application was performed at 8:00 H and 16:00 H each day. Application was performed for 30 days, at about 5 mg/cm^2 each. On the 31st day, skin was taken from the back of each animal. Subcutaneous fat tissue was removed and collagen and lipid peroxide contents were measured with […]. 3) Result
Back skin tissue was impregnated with paraffin and stained with HE (hematoxylin-eosin). Change of the skin tissue was observed. Skin collagen content was determined by adding 6 N hydrochloric acid to skin and measuring the HYP (hydroxyproline) content according to the chloramine-T oxidation method.

The next test deals with MDA (malondialdehyde). Nature of the test: Guinea pig back skin application for 30 days: lipid peroxide MDA (thiobarboturic acid). The format is in vivo. As to conditions: 3 (w/v)% sample, Content by Equation 1 relative to blank group. Here is the method:
as §2, §3
(§4) SOD (superoxide dismutase) and GSH-Px (total glutathione peroxidase) are important antioxidative enzymes in living organisms. […]
(§5) MDA was detected using thiobarboturic acid. GSH-Px and SOD contents were measured by DNTB (5,5′-dithio-bis-2-nitrobenzoic acid) and nitrate reduction methods, respectively. […]

Test [2] relates to SOD (superoxide dismutase). Nature of the test: Guinea pig back skin application for 30 days: SOD (nitrate reduction method). The format is in vivo. As to conditions: 3 (w/v)% sample, Content by Equation 1 relative to blank group. As for the experimental part: as §2, §3, §4, §5
The subject of test [3] is GSH-Px (total glutathione peroxidase). Kind of test: Guinea pig back skin application for 30 days: GSH-Px (DNTB method). The format is in vivo. The settings on record: 3 (w/v)% sample, Content by Equation 1 relative to blank group. Here is the method:
as §2, §3, §4, §5

For test [4], the system named is fibroblasts. Nature of the test: Effect on fibroblast cell activity (MTT analysis). The format is cell-based, mouse. The settings on record: non-treated = 0. Here is the method: Skin tissue was taken from a red skin mouse 3 days or less old. Hypodermic tissue was removed and the skin was treated with 0.25% trypsin for 12 hours. The skin was separated into the epidermis and the dermis. The epidermis was cultured to 75% confluence in an epidermis culture medium (K-SFM). The dermis was further treated with trypsin at 37° C. for 2 hours. Fibroblasts were taken from the dermis and cultured to 75% confluence in a DMEM culture medium containing 10% serum. Paeoniflorin prepared in Preparation Example 1 was dissolved in the cultured keratinocytes and fibroblasts and treated to 0.0004 M. Cell count was measured by MTT [3-(4,5-dimethylthiazol-2-yl)-2,5-diphenyltetrazolium bromide)] analysis to determine cell activity. A non-treated group and a group treated with 0.002 M vitamin C were tested as control groups.

Test [5] concerns normal human keratinocytes. Nature of the test: Prevention of DNA impairment caused by UV (electrophoresis tail moment) in cultured keratinocytes. The format is cell-based. The settings on record: for Average tail moment (n = 50) / Prevention effect (%): 12 hours, then 60 mJ UVB. Here is the method:
Prevention effect of DNA impairment caused by UV of paeoniflorin prepared in Preparation Example 1 was determined for normal human skin keratinocytes.
Cultured normal human keratinocytes were treated with paeoniflorin of concentrations thereof for 12 hours. The culture medium was removed and the cells were washed with PBS. 60 mJ UVB was irradiated and DNA impairment of the cells was checked. If there is DNA strand breakage inside the cell nucleus, an extended tail is shown toward the positive electrode during electrophoresis. Thus, impairment of DNA can be easily detected by electrophoresis. The average of tail moment of 50 randomly selected cells was used as a control value. The tail moment of paeoniflorin-treated cells was averaged. The control value and the resultant test value were put in Equation 2 below to calculate paeoniflorin's prevention effect of DNA impairment caused by UV.
Prevention effect (%)=(Control value−Test value)/(Control value)×100 [Equation 2]

Test [6] concerns hairless mice. Kind of test: Prevention of DNA impairment caused by UV (in vivo). As to conditions: after 6 days 1 J UVB. Here is the method: Prevention effect (%)=(Control value−Test value)/(Control value)×100 [Equation 2] Paeoniflorin dissolved in 80% ethanol was applied to the back of hairless mice. After 6 days, 1 J UVB was irradiated. Skin cells were taken and DNA impairment was measured.

In test [7] the test system is hairless mice. Kind of test: Prevention of wrinkles caused by UV. The format is in vivo. The settings on record: 0.2% in 1,3-butylene glycol; UV 2MED, 12 weeks, three days a week. Here is the method:
Prevention effect of wrinkles caused by UV of paeoniflorin prepared in Preparation Example 1 was evaluated as follows using hairless mice. UV was irradiated to hairless mice with a solar stimulator at 2MED (minimum erythema dose). Irradiation was performed for 12 weeks, three days a week. Of the total of 10 mice, 0.2% paeoniflorin dissolved in 1,3-butylene glycol was applied to the sample treatment group and only 1,3-butylene glycol was applied to the control group. Wrinkles of each group were compared 12 weeks later.

[8] abbreviates: 0.01% in 80% ethanol applied to the back.
[9] abbreviates: 0.1% in 80% ethanol applied to the back.
[10] abbreviates: 1% in 80% ethanol applied to the back.

Marks after values point to notes of the source that are not given here.

In the test with Keratinocytes (0.0004 M), Vitamin E [reference compound] showed a Cell aging rate of 20.1%, a Cell death rate of 10.5% and a Cell growth rate of 23.3%. In the test on fibroblasts [1] (0.0004 M), the Cell aging rate came to 22.8%, the Cell death rate amounted to 15.4% and the Cell growth rate is 9.96%. In the test on guinea pig back skin, the “Increase of collagenous fiber bundles (%)” value was 10.4* % and the “Increase of collagen content in dermis (%)” value is 29.86* %. Besides, the MDA with MDA (malondialdehyde) is on record as 26.71*. In test [2], the SOD is reported as 7.17*. Also, in [3], the GSH-Px was 28.60*.
Consider `O=C1O[C@H]([C@@H](O)CO)C(O)=C1O` [vitamin C, reference compound], for which the “Increase in cell activity (%)” value in the test with fibroblasts [4] (0.002 M) is recorded as 14.4%.
For `C[C@@]12C[C@@]3(O)O[C@@H](O1)[C@]1(COC(=O)c4ccccc4)[C@H]3C[C@@]12O[C@@H]1O[C@H](CO)[C@@H](O)[C@H](O)[C@H]1O` [Paeoniflorin], the “Increase in cell activity (%)” value in the test with fibroblasts [4] (0.0004 M) is on record as 25.7%. In the test on Keratinocytes (0.0005 M), this molecule came in with a Cell aging rate of 24.7%, a Cell death rate of 12.3% and a Cell growth rate of 55.3%. In the test on fibroblasts [1] (0.0005 M), the Cell aging rate is reported as 17.2%, the Cell death rate came to 11.5% and the Cell growth rate is listed as 18.4%. Also, in the test with guinea pig back skin, the “Cell organelles observed in the dermis” value is “Expansion of RER (rough endoplasmie reticulum) and increase of mitochondria”; the “Histological observation (HE): change in the dermis” value is listed as “an increase in collagenous fiber bundles was observed in the dermis”; the “Histological observation (HE): change in the epidermis” value was “no significant change in the epidermis”; the “Observation with the naked eyes of treated skin” value was “significant apparent improvement, such as soft and shiny skin”. Besides, in the test on guinea pig back skin, the “Increase of collagenous fiber bundles (%)” value is 18.1* % and the “Increase of collagen content in dermis (%)” value was 35.92* %. The MDA in the test on MDA (malondialdehyde) is 29.57*. For the same molecule, in test [2], the SOD is 8.58*. Moreover, the GSH-Px in [3] was 29.51*. In test [5] (0.0001%), the “Average tail moment (n = 50)” value is listed as 7.951 ± 1.887 and the “Prevention effect (%)” value turned out to be 16.9%. In test [5] (0.001%), the “Average tail moment (n = 50)” value was 7.710 ± 2.161 and the “Prevention effect (%)” value is recorded as 19.4%. In test [5] (0.01%), the “Average tail moment (n = 50)” value came to 7.409 ± 2.395 and the “Prevention effect (%)” value is 22.6%. For the same molecule, in [5] (0.1%), the “Average tail moment (n = 50)” value turned out to be 7.320 ± 2.534 and the “Prevention effect (%)” value was determined as 23.5%. For the same molecule, in test [5] (treatment concentration range of 0.0001% to 0.1%), the “DNA impairment prevention effect” value is listed as “at least 16.9%”. Besides, in the test with hairless mice [6] (setting [8]), the “Average tail moment (n = 50)” value was 14.968 ± 5.883 and the “Prevention effect (%)” value is reported as 40.9%. For the same molecule, in the test with hairless mice [6] (setting [9]), the “Average tail moment (n = 50)” value came to 18.930 ± 5.969 and the “Prevention effect (%)” value was determined as 25.3%. In the test with hairless mice [6] (setting [10]), the “Average tail moment (n = 50)” value turned out to be 18.363 ± 5.463 and the “Prevention effect (%)” value was 27.5%. Moreover, in the test with hairless mice [7], the “Not improved (number of mice, wrinkles compared to the control group)” value stood at 0; the “Significantly improved (number of mice, wrinkles compared to the control group)” value is on record as 6; the “Slightly improved (number of mice, wrinkles compared to the control group)” value was 4.
